System: KRAS PDC multicell spheroid viability
Experiment: Anticancer human tumor 521955-158-R6-J3-PDC patient-derived pancreatic carcinoma cell line growth inhibition [KRAS2]
Details: for IC50: curve of first compound; for viability, T/C: stronger effect = lower value
Text: Multicellular complex tumor spheroid response to RAS pathway inhibitors in combination with a targeted agents in patient-derived cell lines with oncogenic KRAS variants from multiple cancer types
A high-throughput screen of multi-cell type tumor spheroids was designed to identify active combinations of targeted small molecules and KRAS pathway inhibitors. Complex spheroids include a stromal component modeled by human endothelial cells (HUVEC) and fibroblasts modeled by human mesenchymal stem cells (MSCs). The concentration ranges selected for each drug and investigational agent were based upon clinically achievable concentrations if the clinical Cmax of the agent was known.
Compounds. The drugs and investigational agents: BI-3406 (NSC825286), BAY-293 (NSC824723), batoprotafib (TNO155; NSC825523), sotorasib (AMG 510; NSC818433), MRTX1257 (NSC819558), elimusertib (BAY 1895344; NSC800525), molibresib (GSK525762; NSC774829), temuterkib (LY3214996; NSC803410), venetoclax (NSC766270), alisertib (NSC759677), olaparib (NSC753686), talazoparib (NSC767125), erdafitinib (NSC781556), ipatasertib (NSC767898), cabozantinib (NSC761068), nintedanib (NSC756659), abemaciclib (NSC768073), docetaxel (NSC628503), trametinib (NSC758246), and sapanisertib (NSC764658) were obtained from the National Cancer Institute (NCI) Developmental Therapeutics Program Chemical Repository. The FDA-approved anticancer drug set is available from the Developmental Therapeutics Program. […] The stock solutions were prepared in dimethyl sulfoxide (DMSO, Sigma-Aldrich, St. Louis, MO, cat. D2650) at 800-fold the tested concentration and stored at -70 degrees C prior to their use. All drugs and investigational agents were tested over a range starting from a high concentration at or near the clinical Cmax and decreasing in half-log increments. If the clinical Cmax for an agent had not been determined, the highest concentration tested was 10 microM.
Cell Culture. All cells were maintained in an incubator at 37 degrees C and 5% CO2 with 95% humidity. The PDC lines were cultured according to standard operating procedures established by the NCI PDMR (https://pdmr.cancer.gov/sops/default.htm). Briefly, all PDCs were thawed and cultured in Matrigel-coated flasks prepared with a working solution of 1X Ham's F-12 nutrient mix, without supplementation (Invitrogen, Waltham, MA, cat. 11765054), 100 U/mL penicillin-streptomycin (Invitrogen, cat. 15140122), and 2.5% Matrigel (Corning Inc., Corning, NY, cat. 354248) for the first three passages. All PDCs were cultured in complete DMEM/F-12 media containing advanced DMEM/F-12 (Invitrogen, cat. 12634028), 4.9% defined fetal bovine serum, heat inactivated (HyClone Laboratories Inc., Logan, UT, cat. SH30070.03HI), 389 ng/mL hydrocortisone (Sigma-Aldrich, cat. H4001), 9.7 ng/mL human EGF recombinant protein (Invitrogen, cat. PHG0313), 23.4 microg/mL adenine (Sigma-Aldrich, cat. A2786), 97.3 U/mL penicillin-streptomycin (Invitrogen, cat. 15140122), 1.9 mM L-glutamine (Invitrogen, cat. 25030081), and 9.7 microM Y-27632 dihydrochloride (Tocris Bioscience, Bristol, United Kingdom, cat. 1254). The PDCs were cultured in complete DMEM/F12 media without 9.7 microM Y-27632 dihydrochloride for at least two passages prior to the screen. The established cell line HOP-62 was cultured in RPMI 1640 medium, HEPES (Invitrogen, cat. 22400105) with 10% defined fetal bovine serum (HyClone Laboratories Inc., cat. SH30070.03) and 2 mM L-glutamine (Invitrogen, cat. 25030081). The pooled donor HUVEC were cultured in endothelial cell growth medium 2 (PromoCell, Heidelberg, Germany, cat. C-22011) and the hMSC were cultured in mesenchymal stem cell growth medium 2 (PromoCell, cat. C-28009). For all experiments, HUVEC and hMSC were used at passages </=5, while the malignant cell lines were used at passages </=15. […]

[1] = second compound 0.1 µM, first compound 0.0316 µM
[2] = second compound 0.1 µM, first compound 0.1 µM
[3] = second compound 0.316 µM, first compound 0.0316 µM
[4] = second compound 0.316 µM, first compound 0.1 µM
[5] = second compound 1 µM, first compound 0.0316 µM
[6] = second compound 1 µM, first compound 0.1 µM
[7] = second compound 3.16 µM, first compound 0.0316 µM
[8] = second compound 3.16 µM, first compound 0.1 µM
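Also: drug exposure lasted seven days.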
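For viability, T/C in this document: 100% = DMSO vehicle wells and lower means fewer viable cells.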

CC(C)NCC(C(=O)N1CCN(c2ncnc3c2C(C)CC3O)CC1)c1ccc(Cl)cc1 (stereo not given) + CC1OCC2(CCN(c3cnc(Sc4ccnc(N)c4Cl)c(N)n3)CC2)C1N
IC50 (second compound 0.1 µM): > 10000 nM
IC50 (second compound 0.316 µM): > 10000 nM
IC50 (second compound 1 µM): > 10000 nM
IC50 (second compound 3.16 µM): 1350 nM
IC50 (second compound 10 µM): 643 nM
viability, T/C [1]: 86.9%
viability, T/C [2]: 77.1%
viability, T/C (second compound 0.1 µM, first compound 0.316 µM): 68.8%
viability, T/C (second compound 0.1 µM, first compound 1 µM): 68.7%
viability, T/C (second compound 0.1 µM, first compound 3.16 µM): 61.7%
viability, T/C (second compound 0.1 µM, first compound 10 µM): 56%
viability, T/C [3]: 84.3%
viability, T/C [4]: 71.4%
viability, T/C (second compound 0.316 µM, first compound 0.316 µM): 61.1%
viability, T/C (second compound 0.316 µM, first compound 1 µM): 63.5%
viability, T/C (second compound 0.316 µM, first compound 3.16 µM): 60.2%
viability, T/C (second compound 0.316 µM, first compound 10 µM): 48.9%
viability, T/C [5]: 78.1%
viability, T/C [6]: 74.6%
viability, T/C (second compound 1 µM, first compound 0.316 µM): 60.7%
viability, T/C (second compound 1 µM, first compound 1 µM): 54.7%
viability, T/C (second compound 1 µM, first compound 3.16 µM): 50.9%
viability, T/C (second compound 1 µM, first compound 10 µM): 51.7%
viability, T/C [7]: 86.9%
viability, T/C [8]: 78.7%
viability, T/C (second compound 3.16 µM, first compound 0.316 µM): 59.7%
viability, T/C (second compound 3.16 µM, first compound 1 µM): 53%
viability, T/C (second compound 3.16 µM, first compound 3.16 µM): 47.5%
viability, T/C (second compound 3.16 µM, first compound 10 µM): 43.3%
viability, T/C (second compound 10 µM, first compound 0.0316 µM): 102%
viability, T/C (second compound 10 µM, first compound 0.1 µM): 73.8%
viability, T/C (second compound 10 µM, first compound 0.316 µM): 56.7%
viability, T/C (second compound 10 µM, first compound 1 µM): 43.9%
viability, T/C (second compound 10 µM, first compound 3.16 µM): 44.2%
viability, T/C (second compound 10 µM, first compound 10 µM): 34.1%

CN(C)C/C=C/C(=O)Nc1cc2c(Nc3ccc(F)c(Cl)c3)ncnc2cc1O[C@H]1CCOC1 + C=CC(=O)N1CCN(c2nc(OCC3CCCN3C)nc3c2CCN(c2cccc4cccc(C)c24)C3)CC1CC#N
IC50 (second compound 0.0316 µM): > 100 nM
IC50 (second compound 0.1 µM): > 100 nM
IC50 (second compound 0.316 µM): > 100 nM
IC50 (second compound 1 µM): > 100 nM
IC50 (second compound 3.16 µM): < 0.316 nM
viability, T/C (second compound 0.0316 µM, first compound 0.000316 µM): 108%
viability, T/C (second compound 0.0316 µM, first compound 0.001 µM): 92.2%
viability, T/C (second compound 0.0316 µM, first compound 0.00316 µM): 81.8%
viability, T/C (second compound 0.0316 µM, first compound 0.01 µM): 72.4%
viability, T/C (second compound 0.0316 µM, first compound 0.0316 µM): 66%
viability, T/C (second compound 0.0316 µM, first compound 0.1 µM): 66.8%
viability, T/C (second compound 0.1 µM, first compound 0.000316 µM): 97.2%
viability, T/C (second compound 0.1 µM, first compound 0.001 µM): 93.8%
viability, T/C (second compound 0.1 µM, first compound 0.00316 µM): 89.6%
viability, T/C (second compound 0.1 µM, first compound 0.01 µM): 64.7%
viability, T/C [1]: 72.4%
viability, T/C [2]: 61.8%
viability, T/C (second compound 0.316 µM, first compound 0.000316 µM): 99.9%
viability, T/C (second compound 0.316 µM, first compound 0.001 µM): 92.2%
viability, T/C (second compound 0.316 µM, first compound 0.00316 µM): 91%
viability, T/C (second compound 0.316 µM, first compound 0.01 µM): 78.7%
viability, T/C [3]: 68%
viability, T/C [4]: 67.6%
viability, T/C (second compound 1 µM, first compound 0.000316 µM): 91.9%
viability, T/C (second compound 1 µM, first compound 0.001 µM): 93.4%
viability, T/C (second compound 1 µM, first compound 0.00316 µM): 81.3%
viability, T/C (second compound 1 µM, first compound 0.01 µM): 63.4%
viability, T/C [5]: 64.1%
viability, T/C [6]: 64.5%
viability, T/C (second compound 3.16 µM, first compound 0.000316 µM): 48.5%
viability, T/C (second compound 3.16 µM, first compound 0.001 µM): 32.9%
viability, T/C (second compound 3.16 µM, first compound 0.00316 µM): 15.2%
viability, T/C (second compound 3.16 µM, first compound 0.01 µM): 12.7%
viability, T/C [7]: 12.8%
viability, T/C [8]: 23.1%
